Literature values as cited in patent US20130251697A1, “NOVEL NASAL SPRAY” (priority 2009, published 2013).

System: SIRT1
Settings: life extending genes

Oc1ccc(C=Cc2cc(O)cc(O)c2)cc1 [Resveratrol]
increases genes SIRT1 expression: up to 13 fold
